In ChEMBL document CHEMBL4842340, “Development of Cagrilintide, a Long-Acting Amylin Analogue” (J Med Chem, 2021):
pEC50, pIC50: −log10 of the molar value. Converted amounts (≈) assume the structure as drawn. *1 amine or outer side, *2 acyl side, *3 side chain or, on linkers, in order; H or OH if unused. Where a SMILES comes first, the peptide text is derived from it. Bridges are numbered along the chain shown (N, C = ends). The star is where a group is joined. C20 diacid = O=C(O)CCCCCCCCCCCCCCCCCCC(=O)*; γGlu = O=C(O)[C@H](CCC(=O)[*:2])N[*:1]

How the values were obtained:
[1] = Agonist activity at human AMY3R (CT+RAMP3) expressed in Hollex1 cells incubated for 3 hrs by luminescence assay; assay type: cell-based; details: Hollex1, 3 h
[2] = Agonist activity at human calcitonin receptor expressed in BHK570 cells assessed as increase in intracellular cAMP concentration incubated for 3 hrs in absence of albumin by CRE luciferase reporter gene assay; assay type: cell-based; details: BHK570, 3 h
Homo sapiens [3] = organism: Homo sapiens; experiment: Ratio of EC50 for human calcitonin receptor expressed in BHK570 cells to EC50 for human AMY3R (CT+RAMP3) expressed in Hollex1 cells; assay type: cell-based
[4] = Agonist activity at rat AMY3R (CT+RAMP3) expressed in tk-ts13 cells assessed as increase in intracellular cAMP level incuabted for 25 mins by CRE luciferase reporter gene assay; assay type: cell-based; details: tk-ts13, 25 min
[5] = Agonist activity at rat calcitonin receptor expressed in BHK-13 cells assessed as increase in intracellular cAMP concentration incubated for 25 mins by CRE luciferase reporter gene assay; assay type: cell-based; details: BHK-13, 25 min
Rattus norvegicus [6] = organism: Rattus norvegicus; experiment: Ratio of EC50 for rat calcitonin receptor expressed in BHK-13 cells to EC50 for rat AMY3R (CT+RAMP3) expressed in tk-ts13 cells; assay type: cell-based
[7] = Displacement of [125I]-amylin from human AMY3R (CTR+RAMP3) expressed in BHK-13 cells measured after 120 mins by scintillation proximity assay; assay type: cell-based
[8] = Displacement of [125I]-calcitonin from human calcitonin receptor expressed in tk-ts 13 cells measured after 120 mins by scintillation proximity assay; assay type: cell-based; details: tk-ts13
Homo sapiens [9] = organism: Homo sapiens; experiment: Ratio of IC50 for displacement of [125I]-calcitonin from human calcitonin receptor expressed in tk-ts 13 cells to IC50 for displacement of [125I]-amylin from human AMY3R (CTR+RAMP3) expressed in BHK-13 cells; assay type: cell-based
[10] = Displacement of [125I]-amylin from rat AMY3R (CTR+RAMP3) expressed in BHK-13 cells measured after 120 mins by scintillation proximity assay; assay type: cell-based
[11] = Displacement of [125I]-calcitonin from rat calcitonin receptor expressed in tk-ts 13 cells measured after 120 mins by scintillation proximity assay; assay type: cell-based; details: tk-ts13
Rattus norvegicus [12] = organism: Rattus norvegicus; experiment: Ratio of IC50 for displacement of [125I]-calcitonin from rat calcitonin receptor expressed in tk-ts 13 cells to IC50 for displacement of [125I]-amylin from rat AMY3R (CTR+RAMP3) expressed in BHK-13 cells; assay type: cell-based
[13] = Solubility of the compound in lactate at pH 3 by UPLC analysis; assay type: physicochemical; details: lactate buffer
[14] = Solubility of the compound in lactate at pH 4 by UPLC analysis; assay type: physicochemical; details: lactate buffer
[15] = Solubility of the compound in lactate at pH 5 by UPLC analysis; assay type: physicochemical; details: lactate buffer
[16] = Solubility of the compound in bis-tris propane at pH 6 by UPLC analysis; assay type: physicochemical; details: bis-tris propane buffer
[17] = Solubility of the compound in bis-tris propane at pH 7 by UPLC analysis; assay type: physicochemical; details: bis-tris propane buffer
[18] = Solubility of the compound in bis-tris propane at pH 7.5 by UPLC analysis; assay type: physicochemical; details: bis-tris propane buffer
Insulin (Homo sapiens) [19] = biological target: Insulin (Homo sapiens) (UniProt P01308); experiment: Effect on insulin (unknown origin) amyloid fibril formation assessed as lag time in glycyl-glycine buffer at pH 4 measured after 45 hrs by thioflavin-T fluorescence assay
Sequence of Insulin (Homo sapiens) (P01308 whole entry): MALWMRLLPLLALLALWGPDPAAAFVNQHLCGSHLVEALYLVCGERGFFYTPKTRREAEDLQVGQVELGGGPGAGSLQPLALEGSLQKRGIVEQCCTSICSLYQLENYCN

Insulin (Homo sapiens) [20] = biological target: Insulin (Homo sapiens) (UniProt P01308); experiment: Effect on insulin (unknown origin) amyloid fibril formation assessed as peptide recovery in glycyl-glycine buffer at pH 4 measured after 45 hrs by thioflavin-T fluorescence assay relative to control; parameters: concentration or dose not given beside the values
Insulin (Homo sapiens) [21] = biological target: Insulin (Homo sapiens) (UniProt P01308); experiment: Effect on insulin (unknown origin) amyloid fibril formation assessed as lag time in HEPES buffer at pH 7.5 measured after 45 hrs by thioflavin-T fluorescence assay
Insulin (Homo sapiens) [22] = biological target: Insulin (Homo sapiens) (UniProt P01308); experiment: Effect on insulin (unknown origin) amyloid fibril formation assessed as peptide recovery in HEPES buffer at pH 7.5 measured after 45 hrs by thioflavin-T fluorescence assay relative to control
Rattus norvegicus [23] = experiment: Reduction in food intake in Sprague-Dawley rat at 30 nmol/kg, sc administered as single dose measured upto 24 hrs relative to control; assay type: functional; parameters: scale not given: the % may be the effect or the level left; details: time hrs <=24
Rattus norvegicus [24] = experiment: Reduction in food intake in Sprague-Dawley rat at 30 nmol/kg, sc administered as single dose measured after 24 to 48 hrs relative to control; assay type: functional; parameters: scale not given: the % may be the effect or the level left; details: time 24-48 hrs
Rattus norvegicus [25] = experiment: Reduction in food intake in Sprague-Dawley rat at 3 nmol/kg, sc administered as single dose measured upto 24 hrs relative to control; assay type: functional; parameters: scale not given: the % may be the effect or the level left; details: time hrs <=24
Rattus norvegicus [26] = experiment: Reduction in food intake in Sprague-Dawley rat at 3 nmol/kg, sc administered as single dose measured after 24 to 48 hrs relative to control; assay type: functional; parameters: scale not given: the % may be the effect or the level left; details: time 24-48 hrs
[27] = Solubility of the compound in bis-tris propane at pH 6.5 by UPLC analysis; assay type: physicochemical; details: bis-tris propane buffer
[28] = Solubility of the compound in bis-tris propane at pH 8 by UPLC analysis; assay type: physicochemical; details: bis-tris propane buffer
[29] = Dose normalized AUC in Sprague-Dawley rat at 10 nmol/kg, iv measured up to 96 hrs by LC-MS analysis; assay type: ADME, organism-based; details: in vivo
[30] = Apparent volume of distribution in Sprague-Dawley rat at 10 nmol/kg, iv measured up to 96 hrs by LC-MS analysis; assay type: ADME, organism-based; details: in vivo, read-out: Vz
[31] = Clearance in Sprague-Dawley rat at 10 nmol/kg, iv measured up to 96 hrs by LC-MS analysis; assay type: ADME, organism-based; details: in vivo
[32] = Half life in Sprague-Dawley rat at 10 nmol/kg, iv measured up to 96 hrs by LC-MS analysis; assay type: ADME, organism-based; details: in vivo
[33] = Dose normalized AUC in Sprague-Dawley rat at 10 nmol/kg, sc measured up to 96 hrs by LC-MS analysis; assay type: ADME, organism-based; details: in vivo
[34] = Half life in Sprague-Dawley rat at 10 nmol/kg, sc measured up to 96 hrs by LC-MS analysis; assay type: ADME, organism-based; details: in vivo
[35] = Bioavailability in Sprague-Dawley rat at 10 nmol/kg, sc measured up to 96 hrs by LC-MS analysis; assay type: ADME, organism-based; details: in vivo

SMILES | pEC50 [1] | pEC50 [2] | Ratio EC50 (Homo sapiens [3]) | pEC50 [4] | pEC50 [5] | Ratio EC50 (Rattus norvegicus [6]) | pIC50 [7] | pIC50 [8] | Ratio IC50 (Homo sapiens [9]) | pIC50 [10] | pIC50 [11] | Ratio IC50 (Rattus norvegicus [12]) | solubility [13] | solubility [14] | solubility [15] | solubility [16] | solubility [17] | solubility [18] | TIME (Insulin (Homo sapiens) [19]) | Activity (Insulin (Homo sapiens) [20]) | other results
CC[C@H](C)[C@H](NC(=O)[C@@H]1CCCN1C(=O)CNC(=O)[C@H](Cc1ccccc1)NC(=O)[C@H](CC(N)=O)NC(=O)[C@H](CC(N)=O)NC(=O)[C@H](CO)NC(=O)[C@H](CO)NC(=O)[C@H](Cc1c[nH]cn1)NC(=O)[C@H](Cc1cnc[nH]1)NC(=O)[C@H](CC(C)C)NC(=O)[C@H](Cc1ccccc1)NC(=O)[C@H](CCC(=O)O)NC(=O)[C@H](C)NC(=O)[C@H](CC(C)C)NC(=O)[C@H](CCCNC(=N)N)NC(=O)[C@H](CCC(N)=O)NC(=O)[C@@H](NC(=O)[C@H](C)NC(=O)[C@@H]1CSSC[C@H](NC(=O)[C@H](CCCCN)NC(=O)CC[C@H](NC(=O)CCCCCCCCCCCCCCCCCCC(=O)O)C(=O)O)C(=O)N[C@@H](CC(N)=O)C(=O)N[C@@H]([C@@H](C)O)C(=O)N[C@@H](C)C(=O)N[C@@H]([C@@H](C)O)C(=O)N1)[C@@H](C)O)C(=O)N[C@@H](CC(C)C)C(=O)N1CCC[C@H]1C(=O)N1CCC[C@H]1C(=O)N[C@H](C(=O)N[C@@H](CC(N)=O)C(=O)N[C@H](C(=O)NCC(=O)N[C@@H](CO)C(=O)N[C@@H](Cc1cnc[nH]1)C(=O)N[C@H](C(=O)N[C@@H](Cc1ccc(O)cc1)C(N)=O)[C@@H](C)O)C(C)C)[C@@H](C)O ({C20 diacid-γGlu}-KCNTATCATQRLAEFLHHSSNNFGPILPPTNVGSHTY-NH2; disulfide 2-7) | 9.84 | 9.83 | 1 | 9.61 | 9.17 | 3 | 8.97 | 8.95 | 1 | 9.71 | 9.18 | 3 | 200 µM (≈ 896 µg/mL) | 200 µM (≈ 896 µg/mL) | 200 µM (≈ 896 µg/mL) | 200 µM (≈ 896 µg/mL) | 103 µM (≈ 461 µg/mL) | 109 µM (≈ 488 µg/mL) | 37 h | 91% | TIME (Insulin (Homo sapiens) [21]): 1 h; Activity (Insulin (Homo sapiens) [22]): 29%; Activity (Rattus norvegicus [23]): 88%; Activity (Rattus norvegicus [24]): 90%; Activity (Rattus norvegicus [25]): 58%; Activity (Rattus norvegicus [26]): 40%
CC[C@H](C)[C@H](NC(=O)[C@@H]1CCCN1C(=O)CNC(=O)[C@H](Cc1ccccc1)NC(=O)[C@H](CC(N)=O)NC(=O)[C@H](CC(N)=O)NC(=O)[C@H](CO)NC(=O)[C@H](CO)NC(=O)[C@H](Cc1c[nH]cn1)NC(=O)[C@H](CCCNC(=N)N)NC(=O)[C@H](CC(C)C)NC(=O)[C@H](Cc1ccccc1)NC(=O)[C@H](CCC(=O)O)NC(=O)[C@H](C)NC(=O)[C@H](CC(C)C)NC(=O)[C@H](CCCNC(=N)N)NC(=O)[C@H](CCC(N)=O)NC(=O)[C@@H](NC(=O)[C@H](C)NC(=O)[C@@H]1CSSC[C@H](NC(=O)[C@H](CCCCN)NC(=O)CC[C@H](NC(=O)CCCCCCCCCCCCCCCCCCC(=O)O)C(=O)O)C(=O)N[C@@H](CC(N)=O)C(=O)N[C@@H]([C@@H](C)O)C(=O)N[C@@H](C)C(=O)N[C@@H]([C@@H](C)O)C(=O)N1)[C@@H](C)O)C(=O)N[C@@H](CC(C)C)C(=O)N1CCC[C@H]1C(=O)N1CCC[C@H]1C(=O)N[C@H](C(=O)N[C@@H](CC(N)=O)C(=O)N[C@H](C(=O)NCC(=O)N[C@@H](CO)C(=O)N[C@@H](CC(N)=O)C(=O)N[C@H](C(=O)N1CCC[C@H]1C(N)=O)[C@@H](C)O)C(C)C)[C@@H](C)O | 10.31 | 10.21 | 1 | 9.46 | 9.54 | 1 | 9.77 | 9.65 | 1 | 9.28 | 9.17 | 1 | 200 µM (≈ 882 µg/mL) | 200 µM (≈ 882 µg/mL) | 200 µM (≈ 882 µg/mL) | 200 µM (≈ 882 µg/mL) | 200 µM (≈ 882 µg/mL) | 200 µM (≈ 882 µg/mL) | 45 h | 96% | solubility [27]: 200 µM (≈ 882 µg/mL); solubility [28]: 200 µM (≈ 882 µg/mL); TIME (Insulin (Homo sapiens) [21]): 41 h; Activity (Insulin (Homo sapiens) [22]): 76%; Activity (Rattus norvegicus [23]): 85%; Activity (Rattus norvegicus [24]): 84%; Activity (Rattus norvegicus [25]): 40%; Activity (Rattus norvegicus [26]): 29%; AUC/dose [29]: 266 kg·h/L; Vd [30]: 0.109 L/kg; clearance [31]: 3.77 mL/h/kg; half-life [32]: 20 h; AUC/dose [33]: 87 kg·h/L; half-life [34]: 27 h; bioavailability [35]: 30%
